Results as given in patent US7138361B2, “Herbicidal heterocycles” (E. I. du Pont de Nemours and Company, priority 2000, dated 2006).

Legend:
Assay type in all cases: in vivo
[1] = system: Sunflower; assay: Test C preemergence; settings: Rate 500 g/ha, visual evaluation after 12 to 14 days
[2] = system: giant foxtail (Setaria faberii); assay: Test B postemergence; settings: 13 to 15 days
Procedure, shortened: (§1)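 Seeds were planted and sprayed preemergence with test chemical in a non-phytotoxic solvent mixture containing surfactant; postemergence plants (2 to 18 cm, 1- to 4-leaf stage) received the same formulation. Greenhouse hold 13 to 15 days, then visual rating versus untreated controls on a 0–100 scale (0 no effect, 100 complete control).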

[3] = system: wild oat (Avena fatua); assay: Test B postemergence; settings: Rate 500 g/ha, scale 0 to 100, 0 is no effect, 100 is complete control, 13 to 15 days
Procedure, shortened: as §1

[4] = system: crabgrass (Digitaria sanguinalis); assay: Test B postemergence; settings: 13 to 15 days
Procedure, shortened: as §1

[5] = system: cocklebur (Xanthium strumarium); assay: Test B postemergence; settings: 13 to 15 days
Procedure, shortened: as §1

[6] = system: barnyardgrass (Echinochloa crus-galli); assay: Test B postemergence; settings: 13 to 15 days
Procedure, shortened: as §1

[7] = system: corn (Zea mays); assay: Test B postemergence; settings: 13 to 15 days
Procedure, shortened: as §1

[8] = system: morning glory (Ipomoea hederacea); assay: Test B postemergence; settings: Rate 500 g/ha, scale 0 to 100, 0 is no effect, 100 is complete control, 13 to 15 days
Procedure, shortened: as §1

[9] = system: wheat (Triticum aestivum); assay: Test B postemergence; settings: Rate 500 g/ha, scale 0 to 100, 0 is no effect, 100 is complete control, 13 to 15 days
Procedure, shortened: as §1

[10] = system: pigweed (Amaranthus retroflexus); assay: Test B postemergence; settings: Rate 500 g/ha, scale 0 to 100, 0 is no effect, 100 is complete control, 13 to 15 days
Procedure, shortened: as §1

[11] = system: Surinam grass (Brachiaria decumbens); assay: Test B postemergence; settings: 13 to 15 days
Procedure, shortened: as §1

[12] = system: velvetleaf (Abutilon theophrasti); assay: Test B postemergence; settings: Rate 500 g/ha, scale 0 to 100, 0 is no effect, 100 is complete control, 13 to 15 days
Procedure, shortened: as §1

[13] = system: Sunflower; assay: Test C preemergence; settings: Rate 125 g/ha; scale 0 to 100, 0 no effect, 100 complete control
[14] = system: yellow nutsedge (Cyperus esculentus); assay: Test C preemergence; settings: for Plant response rating (0 to 100), Nutsedge: Rate 500 g/ha, visual evaluation after 12 to 14 days
Procedure, shortened: (§2)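 Pre- and postemergence treatments used a non-phytotoxic solvent/surfactant formulation; post-treated plants measured 2 to 18 cm. Greenhouse hold 12–14 d; % control estimated visually relative to controls.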

[15] = system: goosegrass (Eleusine indica); assay: Test C preemergence; settings: for Plant response rating (0 to 100), Goosegrass: Rate 500 g/ha, visual evaluation after 12 to 14 days
Procedure, shortened: as §2

[16] = system: morningglory (Ipomoea hederacea); assay: Test C preemergence; settings: for Plant response rating (0 to 100), Morningglory: Rate 500 g/ha, visual evaluation after 12 to 14 days
Procedure, shortened: as §2

[17] = system: corn (Zea mays); assay: Test C preemergence; settings: for Plant response rating (0 to 100), Corn: Rate 500 g/ha, visual evaluation after 12 to 14 days
Procedure, shortened: as §2

[18] = system: johnsongrass (Sorghum halepense); assay: Test C preemergence; settings: for Plant response rating (0 to 100), Johnsongrass: Rate 500 g/ha, visual evaluation after 12 to 14 days
Procedure, shortened: as §2

[19] = system: lambsquarters (Chenopodium album); assay: Test C preemergence; settings: for Plant response rating (0 to 100), Lambsquarters: Rate 500 g/ha, visual evaluation after 12 to 14 days
Procedure, shortened: as §2

[20] = system: common ragweed (Ambrosia elatior); assay: Test C preemergence; settings: for Plant response rating (0 to 100), Ragweed, Common: Rate 500 g/ha, visual evaluation after 12 to 14 days
Procedure, shortened: as §2

[21] = system: Nightshade; assay: Test C preemergence
[22] = system: velvetleaf (Abutilon theophrasti); assay: Test C preemergence; settings: for Plant response rating (0 to 100), Velvetleaf: Rate 500 g/ha, visual evaluation after 12 to 14 days
Procedure, shortened: as §2

[23] = Rate 125 g/ha, scale 0 (no effect) to 100 (complete control)
[24] = Rate 500 g/ha, scale 0 to 100, 0 is no effect, 100 is complete control
[25] = Rate 125 g/ha, scale 0 to 100, 0 no effect, 100 complete control
[26] = preemergence, Rate 62 g/ha, scale 0 to 100
[27] = preemergence, Rate 250 g/ha, scale 0 to 100, 0 no effect, 100 complete control
[28] = Rate 250 g/ha, scale 0 to 100, 0 no effect, 100 complete control

SMILES: CCCC(C)c1ccn(C2SCN(c3cccc(C(F)(F)F)c3)C2=O)n1 (centres unmarked) [Compound 92]
- Plant response rating (0 to 100), Sunflower [1]: 55
- Plant response rating, Foxtail, Giant [2, 23]: 0
- Plant response rating, Foxtail, Giant [2, 24]: 30
- Plant response rating, Wild Oat [3]: 0
- Plant response rating, Crabgrass [4, 23]: 10
- Plant response rating, Crabgrass [4, 24]: 50
- Plant response rating, Cocklebur [5, 23]: 20
- Plant response rating, Cocklebur [5, 24]: 80
- Plant response rating, Barnyardgrass [6, 23]: 0
- Plant response rating, Barnyardgrass [6, 24]: 70
- Plant response rating, Corn [7, 23]: 0
- Plant response rating, Corn [7, 24]: 10
- Plant response rating, Morningglory [8]: 50
- Plant response rating, Wheat [9]: 0
- Plant response rating, Pigweed [10]: 60
- Plant response rating, Surinam grass [11, 23]: 0
- Plant response rating, Surinam grass [11, 24]: 10
- Plant response rating, Velvetleaf [12]: 20
- Plant response rating, Sunflower [13]: 0
- Plant response rating, Nutsedge [14, 25]: 0
- Plant response rating, Nutsedge [14, 26]: 0
- Plant response rating (0 to 100), Nutsedge ([14]; preemergence): 0
- Plant response rating, Nutsedge [14, 27]: 0
- Plant response rating, Goosegrass [15, 25]: 75
- Plant response rating, Goosegrass [15, 26]: 60
- Plant response rating (0 to 100), Goosegrass ([15]; preemergence): 100
- Plant response rating, Goosegrass [15, 27]: 100
- Plant response rating, Morningglory [16, 25]: 0
- Plant response rating, Morningglory [16, 26]: 0
- Plant response rating (0 to 100), Morningglory ([16]; preemergence): 0
- Plant response rating, Morningglory [16, 27]: 0
- Plant response rating, Corn [17, 25]: 10
- Plant response rating, Corn [17, 26]: 0
- Plant response rating (0 to 100), Corn ([17]; preemergence): 40
- Plant response rating, Corn [17, 27]: 30
- Plant response rating, Johnsongrass [18, 25]: 65
- Plant response rating, Johnsongrass [18, 26]: 50
- Plant response rating (0 to 100), Johnsongrass ([18]; preemergence): 100
- Plant response rating, Johnsongrass [18, 27]: 70
- Plant response rating, Lambsquarters [19, 25]: 100
- Plant response rating, Lambsquarters [19, 26]: 80
- Plant response rating (0 to 100), Lambsquarters ([19]; preemergence): 100
- Plant response rating, Lambsquarters [19, 27]: 100
- Plant response rating, Ragweed, Common [20, 25]: 0
- Plant response rating, Ragweed, Common [20, 26]: 0
- Plant response rating (0 to 100), Ragweed, Common ([20]; preemergence): 40
- Plant response rating, Ragweed, Common [20, 27]: 0
- Plant response rating, Nightshade ([21]; Rate 62 g/ha, scale 0 to 100): 0
- Plant response rating, Nightshade [21, 25]: 0
- Plant response rating, Nightshade [21, 28]: 20
- Plant response rating, Velvetleaf [22, 25]: 0
- Plant response rating, Velvetleaf [22, 26]: 0
- Plant response rating (0 to 100), Velvetleaf ([22]; preemergence): 0
- Plant response rating, Velvetleaf [22, 27]: 0

SMILES: CC(C)(C)c1ccn(C2CCN(c3cccc(SC(F)(F)F)c3)C2=O)n1 (centres unmarked) [Compound 93]
- Plant response rating (0 to 100), Sunflower [1]: 20
- Plant response rating, Foxtail, Giant [2, 23]: 0
- Plant response rating, Foxtail, Giant [2, 24]: 0
- Plant response rating, Wild Oat [3]: 0
- Plant response rating, Crabgrass [4, 23]: 0
- Plant response rating, Crabgrass [4, 24]: 0
- Plant response rating, Cocklebur [5, 23]: 30
- Plant response rating, Cocklebur [5, 24]: 50
- Plant response rating, Barnyardgrass [6, 23]: 0
- Plant response rating, Barnyardgrass [6, 24]: 0
- Plant response rating, Corn [7, 23]: 0
- Plant response rating, Corn [7, 24]: 0
- Plant response rating, Morningglory [8]: 10
- Plant response rating, Wheat [9]: 0
- Plant response rating, Pigweed [10]: 20
- Plant response rating, Surinam grass [11, 23]: 0
- Plant response rating, Surinam grass [11, 24]: 0
- Plant response rating, Velvetleaf [12]: 10
- Plant response rating, Sunflower [13]: 0
- Plant response rating, Nutsedge [14, 25]: 0
- Plant response rating, Nutsedge [14, 26]: 0
- Plant response rating (0 to 100), Nutsedge ([14]; preemergence): 0
- Plant response rating, Nutsedge [14, 27]: 0
- Plant response rating, Goosegrass [15, 25]: 100
- Plant response rating, Goosegrass [15, 26]: 20
- Plant response rating (0 to 100), Goosegrass ([15]; preemergence): 100
- Plant response rating, Goosegrass [15, 27]: 100
- Plant response rating, Morningglory [16, 25]: 0
- Plant response rating, Morningglory [16, 26]: 0
- Plant response rating (0 to 100), Morningglory ([16]; preemergence): 20
- Plant response rating, Morningglory [16, 27]: 0
- Plant response rating, Corn [17, 25]: 0
- Plant response rating, Corn [17, 26]: 0
- Plant response rating (0 to 100), Corn ([17]; preemergence): 30
- Plant response rating, Corn [17, 27]: 0
- Plant response rating, Johnsongrass [18, 26]: 0
- Plant response rating (0 to 100), Johnsongrass ([18]; preemergence): 10
- Plant response rating, Johnsongrass [18, 27]: 10
- Plant response rating, Lambsquarters [19, 25]: 70
- Plant response rating, Lambsquarters [19, 26]: 0
- Plant response rating (0 to 100), Lambsquarters ([19]; preemergence): 100
- Plant response rating, Lambsquarters [19, 27]: 90
- Plant response rating, Ragweed, Common [20, 25]: 0
- Plant response rating, Ragweed, Common [20, 26]: 0
- Plant response rating (0 to 100), Ragweed, Common ([20]; preemergence): 0
- Plant response rating, Ragweed, Common [20, 27]: 0
- Plant response rating, Nightshade ([21]; Rate 62 g/ha, scale 0 to 100): 0
- Plant response rating, Nightshade [21, 25]: 0
- Plant response rating, Nightshade [21, 28]: 0
- Plant response rating, Velvetleaf [22, 25]: 0
- Plant response rating, Velvetleaf [22, 26]: 0
- Plant response rating (0 to 100), Velvetleaf ([22]; preemergence): 20
- Plant response rating, Velvetleaf [22, 27]: 0
